Tests used:
Phaedon cochleariae = Phaedon cochleariae test: dipped cabbage leaves infested with mustard beetle larvae; format: in vivo; settings: foliar, 96 h, leaf dip, after 4 d
Procedure: (§1) The expected efficacy of a given combination of two compounds is calculated as follows (see Colby, S. R., “Calculating Synergistic and antagonistic Responses of Herbicide Combinations”, Weeds 15, pp. 20-22, 1967):
(§2) • X is the efficacy expressed in % mortality of the untreated control for test compound A at a concentration of m ppm respectively m g/ha; • Y is the efficacy expressed in % mortality of the untreated control for test compound B at a concentration of n ppm respectively n g/ha; • E is the efficacy expressed in % mortality of the untreated control using the mixture of A and B at m and n ppm respectively m and n g/ha; then is
(§3) If the observed insecticidal efficacy of the combination is higher than the one calculated as “E”, then the combination of the two compounds is more than additive, i.e., there is a synergistic effect.
(§4) To produce a suitable preparation of active compound, 1 part by weight of active compound is mixed with the stated amount of solvent and emulsifier, and the concentrate is diluted with emulsifier-containing water to the desired concentration. Cabbage leaves (Brassica oleracea) are treated by being dipped into the preparation of the active compound of the desired concentration and are infested with larvae of the mustard beetle (Phaedon cochleariae) as long as the leaves are still moist.
(§5) After the specified period of time, the mortality in % is determined. […]

Myzus persicae = Myzus persicae test: cabbage leaves infested with green peach aphid dipped into the preparation; format: in vivo; settings: foliar, 96 h, leaf dip, after 4 d
Procedure: as §1, §2, §3
as §4, with “oleracea) which are heavily infested by the green peach aphid (Myzus persicae)” for “oleracea)”, “concentration.” for “concentration and are infested with larvae of the mustard beetle (Phaedon cochleariae) as long as the leaves are still moist.”
as §5

O=[N+]([O-])NC1=NCCN1Cc1ccc(Cl)nc1 [Imidacloprid]
mortality at 20 ppm (Phaedon cochleariae): 70%
mortality at 0.16 ppm (Myzus persicae): 10%

Source: patent US8877684B2, “Pesticidal composition comprising a synthetic compound useful as nodulation agent of leguminous plants and an insecticide compound” (Bayer CropScience AG, priority 2006, dated 2014)
